Measurements: patent US9981969B2, “Imidazole derivatives and methods of use thereof for improving the pharmacokinetics of a drug” (MERCK SHARP & DOHME CORP., priority 2013, dated 2018)

Tests used:
CYP1A2 = target: T1, CYP1A2 (Homo sapiens, UniProt P05177); assay: Cocktail assay for CYPs in human liver microsomes, phenacetin O-deethylation (1A2); format: biochemical; details: 10 μM phenacetin, 10 min at 37° C.
T1 construct: 0.1 mg/mL protein human liver microsomes (BD Gentest); tissue BD Gentest; host or cells: human liver microsomes
T1 sequence (P05177 1-516): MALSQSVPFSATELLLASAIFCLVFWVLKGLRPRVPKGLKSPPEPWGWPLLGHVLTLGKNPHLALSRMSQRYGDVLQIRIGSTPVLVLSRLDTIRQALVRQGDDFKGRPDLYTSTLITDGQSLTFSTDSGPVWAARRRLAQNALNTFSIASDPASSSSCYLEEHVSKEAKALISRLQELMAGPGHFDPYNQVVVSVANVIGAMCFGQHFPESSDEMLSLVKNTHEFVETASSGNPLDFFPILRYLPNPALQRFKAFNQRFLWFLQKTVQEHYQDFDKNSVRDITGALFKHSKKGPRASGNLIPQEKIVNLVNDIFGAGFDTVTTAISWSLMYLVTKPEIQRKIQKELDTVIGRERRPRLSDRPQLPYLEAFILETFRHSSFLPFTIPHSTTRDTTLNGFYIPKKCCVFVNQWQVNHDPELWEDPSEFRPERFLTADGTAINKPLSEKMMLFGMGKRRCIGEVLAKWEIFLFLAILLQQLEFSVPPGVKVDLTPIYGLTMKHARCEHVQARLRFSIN
Method in brief: (§1)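 Pooled human liver microsomes (0.1 mg/mL) with substrate cocktail (10 μM phenacetin, 5 μM diclofenac, 30 μM mephenytoin, 5 μM dextromethorphan), 1 mM NADPH, pH 7.4 phosphate, 10 min at 37 °C. Metabolites by LC/MS/MS; IC50 from % inhibition at 6 concentrations up to 10 μM.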

CYP2C9 = target: T2, CYP2C9 (Homo sapiens, UniProt P11712); assay: Cocktail assay for CYPs in human liver microsomes, diclofenac 4′-hydroxylation (2C9); format: biochemical; details: 5 μM diclofenac, 10 min at 37° C.
T2 construct: 0.1 mg/mL protein human liver microsomes (BD Gentest); tissue BD Gentest; host or cells: human liver microsomes
T2 sequence (P11712 whole entry): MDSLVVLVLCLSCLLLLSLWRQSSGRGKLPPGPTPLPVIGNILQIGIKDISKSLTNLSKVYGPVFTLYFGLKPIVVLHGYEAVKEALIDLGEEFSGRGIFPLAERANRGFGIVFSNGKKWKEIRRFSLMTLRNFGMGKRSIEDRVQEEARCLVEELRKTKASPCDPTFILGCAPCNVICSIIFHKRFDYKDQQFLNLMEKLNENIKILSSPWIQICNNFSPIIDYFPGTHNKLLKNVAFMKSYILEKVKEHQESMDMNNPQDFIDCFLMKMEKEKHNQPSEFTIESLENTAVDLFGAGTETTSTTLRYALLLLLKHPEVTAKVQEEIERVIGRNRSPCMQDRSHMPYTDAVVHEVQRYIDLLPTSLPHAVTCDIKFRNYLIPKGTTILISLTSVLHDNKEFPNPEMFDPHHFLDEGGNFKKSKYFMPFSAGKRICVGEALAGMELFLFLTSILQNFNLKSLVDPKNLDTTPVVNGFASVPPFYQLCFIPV
Method in brief: as §1

CYP3A4 = target: T3, CYP3A4 (Homo sapiens, UniProt P08684); assay: Cocktail assay for CYPs in human liver microsomes, midazolam 1′-hydroxylation (3A4); format: biochemical; details: 2 μM midazolam, 10 min at 37° C.
T3 construct: 0.1 mg/mL protein human liver microsomes (BD Gentest); tissue BD Gentest; host or cells: human liver microsomes
T3 sequence (P08684 whole entry): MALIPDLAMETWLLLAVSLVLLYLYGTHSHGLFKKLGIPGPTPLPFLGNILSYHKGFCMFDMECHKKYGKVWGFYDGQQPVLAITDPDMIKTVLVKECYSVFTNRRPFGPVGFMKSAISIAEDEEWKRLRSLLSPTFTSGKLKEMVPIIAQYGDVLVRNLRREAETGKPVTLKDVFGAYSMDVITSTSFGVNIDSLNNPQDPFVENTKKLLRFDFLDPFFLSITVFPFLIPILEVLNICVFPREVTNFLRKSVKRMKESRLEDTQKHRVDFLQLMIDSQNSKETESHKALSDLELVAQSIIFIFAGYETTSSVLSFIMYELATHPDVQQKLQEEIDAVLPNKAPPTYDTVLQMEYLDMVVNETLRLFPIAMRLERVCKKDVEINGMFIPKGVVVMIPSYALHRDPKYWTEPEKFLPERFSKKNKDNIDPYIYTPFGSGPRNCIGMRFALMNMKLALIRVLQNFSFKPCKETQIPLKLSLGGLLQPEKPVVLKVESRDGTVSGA
Method in brief: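 CYP3A4 inhibition was measured in human liver microsomes (0.1 mg/mL protein) with 2 μM midazolam as the probe substrate, 1 mM NAPDH, 3.3 mM MgCl2 and 100 mM potassium phosphate buffer (pH 7.4), incubated 10 min at 37° C. After acetonitrile treatment, metabolite was quantified by LC/MS/MS against a tolbutamide internal standard. Percent inhibition at 6 concentrations gave IC50 by SigmaPlot non-linear regression.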

human CYP11B1 = target: T4, human CYP11B1 (Homo sapiens, UniProt P15538); assay: IC50 vs CYP11B1 by measurement of cortisol synthesis in V79 cells; format: cell-based; details: V79 cells expressing human CYP11B1, 1500 nM RSS, cortisol HTRF
T4 construct: expressed in transfected cells
T4 sequence (P15538 25-503): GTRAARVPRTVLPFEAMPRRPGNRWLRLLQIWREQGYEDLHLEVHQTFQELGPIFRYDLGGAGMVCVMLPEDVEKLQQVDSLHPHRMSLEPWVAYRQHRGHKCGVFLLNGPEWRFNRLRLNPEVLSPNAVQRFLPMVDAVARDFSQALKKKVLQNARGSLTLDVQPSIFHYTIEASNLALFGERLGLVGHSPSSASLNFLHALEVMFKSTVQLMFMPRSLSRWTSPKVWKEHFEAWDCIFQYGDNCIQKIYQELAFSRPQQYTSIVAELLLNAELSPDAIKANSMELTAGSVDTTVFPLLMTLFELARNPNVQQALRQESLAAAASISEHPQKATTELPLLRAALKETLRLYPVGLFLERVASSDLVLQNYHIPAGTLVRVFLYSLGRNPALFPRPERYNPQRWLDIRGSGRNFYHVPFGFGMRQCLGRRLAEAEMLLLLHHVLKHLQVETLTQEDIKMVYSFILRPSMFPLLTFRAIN
Method in brief: (§2)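 V79 cells stably expressing CYP11B1 or CYP11B2 were treated with test compound at 10 concentrations (e.g. 10000 down to 0.5 nM), with 1500 nM RSS (CYP11B1) or 750 nM DOC (CYP11B2) as substrate. After ~15 h at RT in the dark, supernatant cortisol/aldosterone was measured by HTRF and back-calculated from a standard curve. IC50 was taken as the inflection point of a four-parameter fit.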

CYP2D6 = target: T5, CYP2D6 (Homo sapiens, UniProt P10635); assay: Cocktail assay for CYPs in human liver microsomes, dextromethorphan O-demethylation (2D6); format: biochemical; details: 5 μM dextromethorphan, 10 min at 37° C.
T5 construct: 0.1 mg/mL protein human liver microsomes (BD Gentest); tissue BD Gentest; host or cells: human liver microsomes
T5 sequence (P10635 whole entry): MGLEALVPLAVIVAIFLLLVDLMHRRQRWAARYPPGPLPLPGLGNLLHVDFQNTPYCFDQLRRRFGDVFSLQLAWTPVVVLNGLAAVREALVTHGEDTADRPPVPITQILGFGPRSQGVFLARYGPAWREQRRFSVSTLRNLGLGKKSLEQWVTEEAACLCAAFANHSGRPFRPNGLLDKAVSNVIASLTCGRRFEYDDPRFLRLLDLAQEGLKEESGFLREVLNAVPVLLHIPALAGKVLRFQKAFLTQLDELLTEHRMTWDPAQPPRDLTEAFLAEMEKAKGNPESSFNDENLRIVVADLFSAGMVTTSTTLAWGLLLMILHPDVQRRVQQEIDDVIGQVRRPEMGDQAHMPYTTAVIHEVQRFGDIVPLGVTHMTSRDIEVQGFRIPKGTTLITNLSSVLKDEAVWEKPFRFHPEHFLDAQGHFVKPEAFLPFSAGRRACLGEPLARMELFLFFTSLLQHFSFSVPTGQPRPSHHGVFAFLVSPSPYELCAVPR
Method in brief: as §1

CYP2C19 = target: T6, CYP2C19 (Homo sapiens, UniProt P33261); assay: Cocktail assay for CYPs in human liver microsomes, mephenytoin 4′-hydroxylation (2C19); format: biochemical; details: 30 μM mephenytoin, 10 min at 37° C.
T6 construct: 0.1 mg/mL protein human liver microsomes (BD Gentest); tissue BD Gentest; host or cells: human liver microsomes
T6 sequence (P33261 whole entry): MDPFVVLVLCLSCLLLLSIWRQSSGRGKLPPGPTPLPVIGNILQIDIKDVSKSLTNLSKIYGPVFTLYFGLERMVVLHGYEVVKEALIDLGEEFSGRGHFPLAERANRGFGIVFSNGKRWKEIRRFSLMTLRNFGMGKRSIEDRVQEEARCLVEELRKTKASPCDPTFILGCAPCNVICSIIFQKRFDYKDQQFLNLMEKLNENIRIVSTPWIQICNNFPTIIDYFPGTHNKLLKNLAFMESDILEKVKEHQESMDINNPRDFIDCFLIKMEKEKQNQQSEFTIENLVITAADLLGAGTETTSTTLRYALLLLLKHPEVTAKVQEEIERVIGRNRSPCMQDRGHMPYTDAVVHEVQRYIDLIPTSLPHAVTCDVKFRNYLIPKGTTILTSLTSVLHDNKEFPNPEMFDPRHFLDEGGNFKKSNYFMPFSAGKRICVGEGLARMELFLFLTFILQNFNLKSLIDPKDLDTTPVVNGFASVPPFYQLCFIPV
Method in brief: as §1

human CYP11B2 = target: T7, human CYP11B2 (Homo sapiens, UniProt P19099); assay: IC50 vs CYP11B2 by measurement of aldosterone synthesis in V79 cells; format: cell-based; details: V79 cells expressing human CYP11B2, 750 nM DOC, aldosterone HTRF
T7 construct: expressed in transfected cells
T7 sequence (P19099 25-503): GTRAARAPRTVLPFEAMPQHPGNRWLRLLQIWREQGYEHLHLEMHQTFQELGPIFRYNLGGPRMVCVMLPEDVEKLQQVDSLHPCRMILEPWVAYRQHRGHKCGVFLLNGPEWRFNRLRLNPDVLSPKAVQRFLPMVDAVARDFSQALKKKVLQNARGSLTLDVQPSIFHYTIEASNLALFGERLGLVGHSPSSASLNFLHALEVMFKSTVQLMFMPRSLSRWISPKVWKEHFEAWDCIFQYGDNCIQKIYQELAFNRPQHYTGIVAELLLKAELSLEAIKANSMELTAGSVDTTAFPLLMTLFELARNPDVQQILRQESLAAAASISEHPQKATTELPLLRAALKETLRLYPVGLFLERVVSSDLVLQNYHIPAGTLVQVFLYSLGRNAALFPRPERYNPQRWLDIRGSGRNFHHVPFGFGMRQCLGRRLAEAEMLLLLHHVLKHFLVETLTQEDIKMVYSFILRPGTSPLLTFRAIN
Method in brief: as §2

C[C@@H](c1ccccc1-c1ccc(F)cc1)n1cncc1C(=O)N1CCC(N2CCC[C@H](O)C2)CC1 [Compound 8]
IC50 (CYP1A2): > 10 µM
IC50 (CYP2C9): > 10 µM
IC50 (CYP3A4): 0.0056 µM
IC50 (human CYP11B1): 21 µM
IC50 (CYP2D6): > 10 µM
IC50 (CYP2C19): > 10 µM
IC50 (human CYP11B2): > 50 µM

C[C@@H](c1ccccc1-c1ccc(F)cc1)n1cncc1C(=O)N1CCC(NC2CCC(O)CC2)CC1 (stereo partly drawn) [Compound 25]
IC50 (CYP1A2): > 10 µM
IC50 (CYP2C9): > 10 µM
IC50 (CYP3A4): 0.0092 µM
IC50 (human CYP11B1): > 50 µM
IC50 (CYP2D6): 5.85 µM
IC50 (CYP2C19): > 10 µM
IC50 (human CYP11B2): > 50 µM

C[C@@H](c1ccccc1-c1ccc(F)cc1)n1cncc1C(=O)N1CCC(N2C[C@@H](O)[C@H](F)C2)CC1 [Compound 15]
IC50 (CYP1A2): > 10 µM
IC50 (CYP2C9): > 10 µM
IC50 (CYP3A4): 0.0041 µM
IC50 (human CYP11B1): 20.2 µM
IC50 (CYP2D6): > 10 µM
IC50 (CYP2C19): > 10 µM
IC50 (human CYP11B2): > 50 µM

C[C@@H](c1ccccc1-c1ccc(F)cc1)n1cncc1C(=O)N1CCN2C[C@H](O)C[C@H]2C1 [Compound 6, (1-((S)-1-(4′-fluoro-[1,1′-biphenyl]-2-yl)ethyl)-1H-imidazol-5-yl)((7R,8aS)-7-hydroxyhexahydro-pyrrolo[1,2-a]pyrazin-2(1H)-yl)methanone]
IC50 (CYP1A2): > 10 µM
IC50 (CYP2C9): > 10 µM
IC50 (CYP3A4): 0.0089 µM
IC50 (human CYP11B1): 29.7 µM
IC50 (CYP2D6): > 10 µM
IC50 (CYP2C19): > 10 µM
IC50 (human CYP11B2): > 50 µM

C[C@@H](c1ccccc1-c1ccc(F)cc1)n1cncc1C(=O)N1CCC(N2CCCC(C)(O)C2)CC1 (stereo partly drawn) [Compound 9]
IC50 (CYP1A2): > 10 µM
IC50 (CYP2C9): > 10 µM
IC50 (CYP3A4): 0.0066 µM
IC50 (human CYP11B1): 24.9 µM
IC50 (CYP2D6): 6.63 µM
IC50 (CYP2C19): > 10 µM
IC50 (human CYP11B2): > 50 µM

C[C@@H](c1ccccc1-c1ccccc1)n1cncc1C(=O)N1CCC2NCCO[C@@H]2C1 (stereo partly drawn) [Compound 34]
IC50 (CYP1A2): > 10 µM
IC50 (CYP2C9): > 10 µM
IC50 (CYP3A4): 0.0068 µM
IC50 (human CYP11B1): 21.2 µM
IC50 (CYP2D6): 8.05 µM
IC50 (CYP2C19): > 10 µM
IC50 (human CYP11B2): > 50 µM

CO[C@H]1CN(C2CCN(C(=O)c3cncn3[C@@H](C)c3ccccc3-c3ccc(F)cc3)CC2)C[C@@H]1O [Compound 22]
IC50 (CYP1A2): > 10 µM
IC50 (CYP2C9): > 10 µM
IC50 (CYP3A4): 0.004 µM
IC50 (human CYP11B1): 21.4 µM
IC50 (CYP2D6): 9.75 µM
IC50 (CYP2C19): > 10 µM
IC50 (human CYP11B2): > 50 µM

C[C@@H](c1ccccc1-c1ccc(F)cc1)n1cncc1C(=O)N1CCC[C@@H]2OCCN[C@H]2C1 [Compound 53]
IC50 (CYP1A2): > 10 µM
IC50 (CYP2C9): > 10 µM
IC50 (CYP3A4): 0.011 µM
IC50 (human CYP11B1): 16.4 µM
IC50 (CYP2D6): > 10 µM
IC50 (CYP2C19): > 10 µM
IC50 (human CYP11B2): > 50 µM

C[C@@H](c1ccccc1-c1ccc(F)cc1)n1cncc1C(=O)N1CCC(N2C[C@H](O)[C@@H](F)C2)CC1 [Compound 16]
IC50 (CYP1A2): > 10 µM
IC50 (CYP2C9): > 10 µM
IC50 (CYP3A4): 0.0043 µM
IC50 (human CYP11B1): 10.2 µM
IC50 (CYP2D6): > 10 µM
IC50 (CYP2C19): > 10 µM
IC50 (human CYP11B2): 24.3 µM
